# Reference: ChEMBL document CHEMBL5661979, “Pharmacological inhibition of BMK1 suppresses tumor growth through promyelocytic leukemia protein” (Cancer Cell, 2010)
# Activity calls are given as the source filed them. The rule behind the calls is not given here.
# Target: Mitogen-activated protein kinase; ERK1/ERK2 (Homo sapiens) (UniProt P27361+P28482)
# Assay: Inhibition of ERK1/2 in human HeLa cells assessed as reduction in EGF-induced ERK1/2 phosphorylation level at T202/Y204 residue at 1 uM pre incubated for 1 hr followed by EGF stimulation and measured after 17 mins by Western blot analysis
# Type: cell-based
# Conditions: time 77.0 min
# Chain of Mitogen-activated protein kinase; ERK1/ERK2 (Homo sapiens) (P27361 whole entry, looked up): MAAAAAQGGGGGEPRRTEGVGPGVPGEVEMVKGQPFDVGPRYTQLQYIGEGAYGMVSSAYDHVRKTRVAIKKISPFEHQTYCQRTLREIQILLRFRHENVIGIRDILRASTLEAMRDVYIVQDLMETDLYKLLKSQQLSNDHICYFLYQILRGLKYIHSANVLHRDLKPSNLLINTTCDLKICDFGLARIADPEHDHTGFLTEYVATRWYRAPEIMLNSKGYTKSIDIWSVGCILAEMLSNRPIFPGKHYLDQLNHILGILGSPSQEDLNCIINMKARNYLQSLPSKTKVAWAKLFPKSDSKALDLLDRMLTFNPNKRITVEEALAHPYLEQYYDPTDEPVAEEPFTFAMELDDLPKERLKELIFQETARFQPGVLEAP
# Chain of Mitogen-activated protein kinase; ERK1/ERK2 (Homo sapiens) (P28482 whole entry, looked up): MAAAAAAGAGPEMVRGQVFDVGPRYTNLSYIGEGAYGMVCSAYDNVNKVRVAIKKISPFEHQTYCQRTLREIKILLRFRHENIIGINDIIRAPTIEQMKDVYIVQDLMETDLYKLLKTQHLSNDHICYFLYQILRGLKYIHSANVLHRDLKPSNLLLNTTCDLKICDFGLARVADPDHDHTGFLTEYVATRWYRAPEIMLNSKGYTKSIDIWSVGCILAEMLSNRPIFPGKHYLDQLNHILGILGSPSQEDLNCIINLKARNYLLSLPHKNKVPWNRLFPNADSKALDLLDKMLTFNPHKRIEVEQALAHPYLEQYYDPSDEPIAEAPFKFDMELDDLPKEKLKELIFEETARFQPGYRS
structure (smiles),measurement,value
O=C(NOCC1CC1)c1ccc(F)c(F)c1Nc1ccc(I)cc1Cl,inhibition,Active
